Measurements taken from patent US9676786B2, “Pharmacologically active compounds” (The University of Liverpool, priority 2013, dated 2017).
Like-named read-outs stand apart in the source and are kept apart here.

What was measured:
[1] = tested on: neuropathic rats; experiment: Mechanical hyperalgesia, paw withdrawal thresholds in neuropathic rats (partial sciatic nerve ligation); type: in vivo, rat; details: neuropathic Wistar rats, p.o.; peak occurred at 3h
Source text: (§1) The wound was closed with skin clips.
(§2) Control animals received vehicle alone.

[2] = tested on: neuropathic rats; experiment: Cold sensitivity (10° C. cold plate), paw withdrawal latencies in neuropathic rats; type: in vivo, rat; details: neuropathic Wistar rats, p.o.; peak occurred at 1h
Source text: as §1, §2

[3] = Pharmacokinetic evaluation, oral dosing in rats; type: in vivo, rat; details: 10 mg/kg oral; for AUC(0-inf) / half-life / Cmax / Tmax: rat, plasma, po, 10 mg/kg; for Cmax: read-out: Cmax; for Tmax: read-out: Tmax
Protocol: • Dose—10 mg/kg (5 mL/kg) • Route—ORAL • Vehicles—10% DMSO/10% Solutol and SSV • Time—24 h • Procedure Number—6 Vehicles • 10% DMSO/10% Solutol/80% Saline • 1) Compound was weighed out into a clean vial. • 2) DMSO was added into the vial; the vial was vortexed and sonicated it for 15 min. • 3) Solutol HS 15 was heated at 50° C. until a liquid formed, and then was added into the vial. The vial was vortexed for 1-2 min. • 4) 0.9% Saline solution was added to the vial. The vial was vortexed and then sonicated for 10 min. Standard Suspension Vehicle (SSV) • 1) A solution of SSV was made using 0.5% Sodium carboxymethylcellulose, 0.5% Benzyl alcohol, 0.4% Tween80 and 98.6% saline (0.9%) • 2) Compound was weighed out into a clean vial • 3) SSV solution was added into the vial; the vial was vortexed and sonicated it for 15 min. Fasted Rats
Fasted rats were fasted overnight and given access to food immediately after dosing.
• 1) Rats were manually restrained and given a 10 mg/kg oral dose of compound at 5 mL/kg. • 2) At designated time points (0.25, 0.5, 1, 3, 5, 7 and 24 hours) the rats were anaesthetised using isoflurane. • 3) Approximately 300 μL of blood was taken from the tail vein using a 1.5 inch needle treated with heparin and collected into 1.5 mL eppendorf tubes. • 4) After sampling, pressure was applied to the puncture until bleeding ceased. The animals were returned to their cages and given free access to food and water. • 5) Blood samples were stored on ice and then centrifuged at 13,000 rpm for 15 min to separate the plasma. • 6) 150 μL of the plasma was treated with 300 μL of ACN:MeOH (1:1) solution containing the internal standard. The samples were then centrifuged for a further 15 min at 13,000 rpm. • 7) 200 μL of the supernatant was collected and placed in LC-MS vials for analysis. All samples were stored at −80° C. Results

[4] = tested on: neuropathic rats; experiment: Comparison of LT-01-25 and LT-01-89: ipsilateral paw withdrawal thresholds to mechanical pressure in neuropathic rats; type: in vivo, rat; details: 10 mg/kg p.o., male SD rats
Protocol: Male, SD rats. n=6/group. Vehicle: 10% DMSO/10% Solutol HS15/80% saline.
• 1) In rats a peripheral neuropathy was induced by partial ligation of the sciatic nerve in one hind limb. • 2) Two weeks (12-15 days) after induction of peripheral neuropathy stable mechanical (tactile) allodynia was induced in the hind paw of the affected limb. • 3) Five treatment groups of male SD rats (n=8) were used: vehicle control (drug formulation), 3 drug doses, and a positive control, lamotrigine (30 mg/kg). Animals were randomized between groups and the experiment was carried out using blinded conditions. The study was split with n=4/group in each experiment. • 4) Baseline behavioural measurements were obtained prior to surgery and at intervals post-surgery. Predose behavioural measurements were obtained by measuring paw withdrawal thresholds 12-15 days following nerve ligation. • 5) Compound efficacy was determined by measuring paw withdrawal thresholds at specified intervals following vehicle/compound treatment. Methods Animals
Animals were maintained in a controlled lighting environment and given food and water ad libitum. Male Sprague Dawley rats (120-140 g at time of surgery) were used.
Rats were fasted overnight with free access to water and fed 4 hours post-dose.
Tests compounds as well as Lamotrigine (30 mg/kg, volume: 10 ml/kg)) were prepared in the designated formulation (10% DMSO, Solutol HS 15/80% and 0.9% saline for p.o. administration) and administered via the chosen route.
Rats were anaesthetised (isoflurane/O2 inhalation), the left sciatic nerve was exposed at mid-thigh level through a small incision and ⅓ to ½ of the nerve thickness tightly ligated within a 7.0 silk suture. The wound was closed with skin clips. Animals were allowed to recover and compounds administered 12-15 days following surgery.
Compound/vehicle were administered at specified doses. Following treatment, further readings were taken; 1, 3, 6 and 24 hour after p.o. administration.

[5] = tested on: neuropathic rats; experiment: Comparison of LT-01-25 and LT-01-89: ipsilateral withdrawal latencies to cold (10° C.) stimulus in neuropathic rats; type: in vivo, rat; details: 10 mg/kg p.o., male SD rats
[6] = Cerebrospinal fluid (CSF) levels after oral dosing; type: in vivo; details: p.o. dose 3 mg/kg, after 2 hr, fasted male SD rat
[7] = Rat microsomal stability; type: in vitro ADME; details: for half-life at 1 μM: rat, rat microsomes
Source text: Rat and human microsomal stability data was obtained using well established protocols known to those skilled in the art.

[8] = Human microsomal stability; type: in vitro ADME
Protocol: The metabolic stability assay was performed by incubating each test compound (1 μM) with human liver microsomes in duplicate at 37° C. and 0.4 mg/mL protein concentration. The metabolic reaction was initiated by the addition of a NADPH-regenerating system (i.e. NADPH is the cofactor required for CYP450-mediated metabolism) and quenched at various time points over the 60 minute incubation period by the addition of acetonitrile. Control samples (containing no NADPH) were included (and quenched at 2, 30 and 60 minutes) to monitor for potential degradation in the absence of cofactor. Samples were analysed by UPLC-MS (Waters/Micromass Xevo G2 QTOF) under positive electrospray ionisation and MS spectral data acquired in a mass range of 80 to 1200 Daltons.
Test compound concentration versus time data were fitted to an exponential decay function to determine the first-order rate constant for substrate depletion. In cases where clear deviation from first-order kinetics was evident, only the initial linear portion of the profile was utilised to determine the degradation rate constant (k). Each substrate depletion rate constant was then used to calculate: [1] a degradation half-life, [2] an in vitro intrinsic clearance value (CLint, in vitro); [3] a predicted in vivo hepatic intrinsic clearance value (CLint); [4] a predicted in vivo blood clearance value (CLblood); and [5] a predicted in vivo hepatic extraction ratio (EH).
• 1) The substrate concentration employed is well below the apparent KM for substrate turnover; and, • 2) There is no significant product inhibition, nor is there any mechanism-based inactivation of enzyme. The use of hepatic microsomes in the prediction of the in vivo hepatic extraction ratio has two further inherent assumptions (Obach, 1999) which: • 1) NADPH-dependent oxidative metabolism predominates over other metabolic routes (i.e. direct conjugative metabolism, reduction, hydrolysis, etc.); and, • 2) Rates of metabolism and enzyme activities in vitro are truly reflective of those that exist in vivo. Data should be considered within these terms of reference.

[9] = target: α1 glycine receptor (Homo sapiens (Human), UniProt P23415); experiment: Expression and electrophysiological characterization of glycine receptor activity (patch/voltage clamp); type: cell-based; details: modulation of agonist induced currents at glycine EC20; means ± s.d.
Chain of α1 glycine receptor (P23415 29-457 limits assumed): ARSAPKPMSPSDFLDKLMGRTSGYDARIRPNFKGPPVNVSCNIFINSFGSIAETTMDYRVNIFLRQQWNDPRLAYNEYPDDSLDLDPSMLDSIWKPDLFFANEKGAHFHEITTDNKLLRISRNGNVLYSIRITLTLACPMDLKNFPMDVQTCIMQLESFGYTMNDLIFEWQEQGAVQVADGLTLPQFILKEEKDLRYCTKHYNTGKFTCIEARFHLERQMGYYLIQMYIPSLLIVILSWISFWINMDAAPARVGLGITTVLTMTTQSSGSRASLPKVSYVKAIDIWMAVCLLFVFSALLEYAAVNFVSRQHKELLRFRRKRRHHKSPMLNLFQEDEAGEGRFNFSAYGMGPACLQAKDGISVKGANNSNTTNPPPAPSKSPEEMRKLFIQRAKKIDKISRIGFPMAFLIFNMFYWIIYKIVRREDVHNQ
Protocol: Human embryonic kidney (HEK) 293 cells (ATCC CRL 1573) and/or Xenopus laevis oocytes were used for expressing the human a1-3 glycine receptor subunit as well as human a1, b3, g2 GABA receptor subunit cDNAs inserted into mammalian expression vectors. Patch- and voltage-clamp recording from receptor expressing cells was performed at a holding potential of −70 mV in normal Ringer solution and digitized for analyses. Dose-response curves of agonist induced peak currents (I) were normalized to the maximal current value obtained and fitted with the sigmoidal Hill equation using a Gauss Marquardt iteration, where EC50 represents the glycine/GABA concentration resulting in a half maximal response. Effects of the compounds tested on agonist induced currents were analysed after superfusing the cells with the respective compound for 5 seconds prior to and during agonist application and dose-response curves of modulated currents were determined in the presence of agonist concentrations eliciting a response corresponding to 20% of the maximal inducible current (EC20 value). Results represent means±s.d. and the significance of the data was evaluated using Student's paired t test and considered to be statistically significant at P<0.05.

[10] = 10% DMSO/10% Solutol/80% Saline, fasted rats
[11] = 10% DMSO/10% Solutol/80% Saline, non-fasted rats

SMILES: CC(C)c1cc(C(=O)N2CCOCC2)cc(C(C)C)c1O [LT-01-25, (4-(hydroxy)-3,5-diisopropylphenyl)(morpholino)methanone]
- Peak reversal, mechanical (paw pressure) [1]: 90%
- Peak reversal, cold (10° C. cold plate) [2]: 93%
- CL (area)/kg [3, 10]: 19.532 mL/min/kg
- Vd (area)/kg [3, 10]: 2.3006 L/kg
- CL (area)/kg [3, 11]: 8.423 mL/min/kg
- Vd (area)/kg [3, 11]: 0.9737 L/kg
- CL (area)/kg ([3]; SSV, fasted rats): 9.193 mL/min/kg
- Vd (area)/kg ([3]; SSV, fasted rats): 1.1426 L/kg
- CL (area)/kg ([3]; SSV, non-fasted rats): 8.662 mL/min/kg
- Half Life ([3]; SSV, non-fasted rats): 3.6 h
- Vd (area)/kg ([3]; SSV, non-fasted rats): 2.7109 L/kg
- AUC(0-inf) [3, 10]: 8530 ng·h/mL
- half-life [3, 10]: 1.4 h
- Cmax [3, 10]: 2420 ng/mL
- Tmax [3, 10]: 0.3 h
- AUC(0-inf) [3, 11]: 20400 ng·h/mL
- half-life [3, 11]: 1.4 h
- Cmax [3, 11]: 1710 ng/mL
- Tmax [3, 11]: 4 h
- AUC(0-inf) ([3]; SSV, fasted rats): 18100 ng·h/mL
- half-life ([3]; SSV, fasted rats): 1.4 h
- Cmax ([3]; SSV, fasted rats): 2590 ng/mL
- Tmax ([3]; SSV, fasted rats): 1 h
- AUC(0-inf) ([3]; SSV, non-fasted rats): 19000 ng·h/mL
- half-life ([3]; SSV, non-fasted rats): 3.62 h
- Cmax ([3]; SSV, non-fasted rats): 2120 ng/mL
- Tmax ([3]; SSV, non-fasted rats): 0.25 h
- Mechanical pressure Percentage reversal of predose hyperalgesia ([4]; 1 hr): 1 hr - - - 80%
- Mechanical pressure Percentage reversal of predose hyperalgesia ([4]; 3 hr): 3 hr - - - 90%
- Mechanical pressure Percentage reversal of predose hyperalgesia ([4]; 6 hr): 6 hr - - - 40%
- Cold (10° C.) Stimulus Percentage reversal of predose Hyperalgesia ([5]; 1 hr): 1 hr - - - 85%
- Cold (10° C.) Stimulus Percentage reversal of predose Hyperalgesia ([5]; 3 hr): 3 hr - - - 35%
- Cold (10° C.) Stimulus Percentage reversal of predose Hyperalgesia ([5]; 6 hr): 6 hr - - - 35%
- CSF levels [6]: 95 ng/mL
- CSF levels as multiple of EC50 [6]: (900 × EC50)
- Cl ([7]; Rat microsomes, 1 μM): 3.35 mL/min/kg
- Cl (values marked *) ([7]; Rat microsomes, 1 μM, second set marked *): 1.07 mL/min/kg (Cl)*
- half-life at 1 μM ([7]; read-out: t1/2): 12.3 h
- half-life at 1 μM ([7]; second set marked *, read-out: t1/2 (values marked *)): 19.2 h
- half-life at 1 μM ([8]; human liver microsomes, read-out: t1/2 (values marked *)): 8.25 h
- Cl (values marked *) ([8]; human microsomes, 1 μM): 2.7 mL/min/kg (Cl) *

SMILES: CC(C)c1cc(C(=O)N2CCN(C)CC2)cc(C(C)C)c1O [Example 6, (4-Hydroxy-3-5-diisopropylphenyl)(4-methylpiperazin-1-yl)methanone]
- EC50 [9]: 1.2 pM

SMILES: CC(C)c1cc(C(=O)N2CC(F)C2)cc(C(C)C)c1O [Example 3, (3-Fluoroazetidin-1-yl)(4-hydroxy-3,5-diisopropylphenyl) methanone]
- EC50 [9]: 430 pM
